Measured values reported in article PMC8838787, “The Antiproliferative and Apoptotic Effects of a Novel Quinazoline Carrying Substituted-Sulfonamides: In Vitro and Molecular Docking Study” (Molecules, 2022).

What was measured:
Assay type in all cases: cell-based, human
MCF-7 cells [1] = test: Cell cycle analysis by PI staining and flow cytometry; conditions: 24 h, mean ± SD, control 57.91 ± 0.61%
Procedure: Indeed, designing of new chemotherapeutic drugs targeting cell cycle progression and apoptosis is considered as an attractive strategy. To explore the antiproliferative effect of compounds 4d and 4f, cell-cycle analysis was performed in MCF-7 cells were examined. The cells were treated with various concentrations of both compound for 24 h, stained with propidium iodide (PI) and analyzed by flow cytometry. As shown in (Figure 2), the incubation of MCF-7 cells with (1.25, 2.5, and 5 μM) of compound 4d for 24 h increased the percentage of cells at G1 (from 57.91 ± 0.61% in control) to 62.51 ± 0.14%, 64.95 ± 0.21% and 66.55 ± 0.78% in treated cells, respectively.
Cell cycle distribution was evaluated by PI staining as previously described. Briefly, MCF-7 cells were seeded and incubated for a period of 24 h to allow for attachment. Subsequently, cells were exposed to different concentrations of compounds 4d and 4f. After 24 h, cells were harvested and fixed in 70% ethanol. Thereafter, cells were washed with PBS, resuspended in 1 mL of PBS containing PI (50 μg/mL), RNase A (0.5 mg/mL), sodium citrate (0.1%) and Triton X-100 (0.1%), then incubated for 15 min in the dark at room temperature. Flow cytometry was carried out by a FACS Scan Flow Cytometer (Cytomics FC 500; Beckman Coulter, Brea, CA, USA). The data were analyzed using CXP software V. 3.0.

MCF-7 cells [2] = test: Annexin V-FITC/PI apoptosis detection; conditions: 24 h, mean ± SD; for early apoptotic cells: untreated 1.05 ± 0.07%; for late apoptotic cells: control 1.75 ± 0.07%
Text: In addition to cell cycle arrest, apoptosis is another important anticancer process that inhibits cancer cell proliferation. Therefore, we further used a double labeling staining with Annexin V-FITC and PI to investigate apoptotic cell death. Phosphatidylserine exposure on the cell surface is a hallmark of early and late apoptotic cells, which can be easily identified with Annexin V-FITC [27].
Apoptotic cells were detected using Annexin V-FITC/PI staining protocol (BioLegend, San Diego, CA, USA) according to the manufacturer’s recommendations. Briefly, MCF-7 cells were incubated for 24 h with the different doses of promising compounds 4d and 4f. The cells were then harvested, washed twice with cold PBS and re-suspended with 1× Annexin V binding buffer (100 µL). Thereafter, cells were transferred into flow cytometry tube and stained with 5 μL of Annexin V- FITC and 5 μL PI for 15 min at room temperature in the dark. The cells were processed for apoptosis using a FACS Scan Flow Cytometer (Cytomics FC 500; Beckman Coulter, Brea, CA, USA) and analyzed using CXP software V. 3.0.

Bcl-2 = test: RT-PCR of apoptotic genes, Bcl-2; conditions: 24 h, vs DMSO-vehicle treated cells
Text: (§1) We next used reverse transcription polymerase chain reaction (RT-PCR) and Western blot analysis to look at Bax (proapoptotic), Bcl-2 (antiapoptotic) and caspase 7 (executioner caspase) expression at gene and protein level as an additional marker of apoptosis occurrence. In fact, apoptotic cell death is mostly directed by the levels of Bcl-2 family, whether they are pro-apoptotic or antiapoptotic and targeting these molecules as a therapeutic strategy is continuously under development. As predicted, we observed an upregulation in the expression of Bax in MCF-7 treated cells to (1.7-, 2- and 2.4-fold) with compound 4d and to (1.2-, 1.4- and 1.6-fold) with compound 4f at (1.25, 2.5 and 5 µM) respectively (Figure 6). […] This shifting in Bax to Bcl-2 ratio usually started caspases activation which plays a critical role in apoptosis execution. Among all caspases, caspase 7 is considered as one of the most crucial executioner caspases that mediate cell death, and its expression strongly correlates with apoptosis stimulation.
(§2) The MCF-7 cells (0.1 × 10^6) in 12 well plates were treated with different concentrations of compounds 4d and 4f for 24 h and untreated cells were used as a control. After 24 h of treatment, cell culture media was removed and the cells were lysed with Trizol (Invitrogen, Waltham, MA, USA), and total RNA was extracted from all the samples [42]. The RNA was estimated by Nano-drop and 1 µg of RNA was used in the cDNA synthesis. The cDNA was synthesized from RNA by using a cDNA synthesis kit (Invitrogen, Thermo Fisher Scientific, lnc., Waltham, MA, USA) according to the manufacturer’s instruction. After Reverse transcription at 42 °C for 60 min, RT-PCR was performed using 5× Firepol Master Mix ready to load (Solis BioDyne) according to manufacturer’s instruction. RT-PCR was used to analyze the gene expression level of P53, Bcl2, Bax and caspase 7 using specific sets of primers for each gene, while β-actin was utilized as a housekeeping gene. The program was run as follows, initial denaturation at 95 °C for 5 min; denaturation at 95 °C for 30 s; annealing at 55 °C for 45 s; elongation at 72 °C for 45 s (30 Cycles) and final extension at 72 °C for 10 min. The RT-PCR products were electrophoresed on a 1.2% agarose gel containing ethidium bromide and the gel was imaged on a Licor machine.

caspase 7 = test: RT-PCR of apoptotic genes, caspase 7; conditions: 24 h, relative to untreated cells
Text: as §1, §2

Row | SMILES | percentage of cells at G1 (MCF-7 cells [1]; 1.25 μM) [%] | percentage of cells at G1 (MCF-7 cells [1]; 2.5 μM) [%] | percentage of cells at G1 (MCF-7 cells [1]; 5 μM) [%] | early apoptotic cells (MCF-7 cells [2]; 1.25 µM) [%] | early apoptotic cells (MCF-7 cells [2]; 2.5 µM) [%] | early apoptotic cells (MCF-7 cells [2]; 5 µM) [%] | Bcl-2 expression (RT-PCR) (Bcl-2; MCF-7, 1.25 µM) [fold] | Bcl-2 expression (RT-PCR) (Bcl-2; MCF-7, 2.5 µM) [fold] | Bcl-2 expression (RT-PCR) (Bcl-2; MCF-7, 5 µM) [fold] | expression of caspase 7 (RT-PCR) (caspase 7; MCF-7, 2.5 µM) [fold] | expression of caspase 7 (RT-PCR) (caspase 7; MCF-7, 5 µM) [fold] | late apoptotic cells (MCF-7 cells [2]; 1.25 µM) [%] | late apoptotic cells (MCF-7 cells [2]; 2.5 µM) [%] | late apoptotic cells (MCF-7 cells [2]; 10 µM) [%]
1 | COc1cccc2c(=O)n(-c3ccc(S(=O)(=O)NCC(=O)Nc4ccc(C)cc4)cc3)c(SCC(=O)Nc3ccc(C)cc3)nc12 [Compound 4d] | 62.51 ± 0.14 | 64.95 ± 0.21 | 66.55 ± 0.78 | 44.45 ± 1.06 | 67.55 ± 1.34 | 83.75 ± 2.19 | 0.88 | 0.68 | 0.49 | 1.35 | 1.58 |  |  | 
2 | CCc1cccc(NC(=O)CNS(=O)(=O)c2ccc(-n3c(SCC(=O)Nc4cccc(CC)c4)nc4c(OC)cccc4c3=O)cc2)c1 [Compound 4f, N-(3-ethylphenyl)-2-((3-(4-(N-(2-((3-ethylphenyl)amino)-2-oxoethyl)sulfamoyl)-phe-nyl)-8-methoxy-4-oxo-3,4-dihydroquinazolin-2yl)thio)acetamide] | 61.65 ± 0.21 | 62.65 ± 0.35 | 65.15 ± 0.36 |  |  |  | 0.92 | 0.68 | 0.62 | 1.35 | 1.58 | 15.4 ± 0.28 | 31.05 ± 1.06 | 52.4 ± 0.28
